{"source": "patent EP0721336B1", "about": "“BENZAZOLE COMPOUNDS FOR USE IN THERAPY” (CANCER RESEARCH CAMPAIGN TECHNOLOGY LIMITED, priority 1993, dated 1995)", "key": {"[1]": {"test_system": "NCI (National Cancer Institute, U.S.A.) panel of human tumour cell lines", "test": "NCI tumour cell line panel test", "format": "cell-based", "conditions": "panel contains no breast cancer cell lines"}, "[2]": {"test_system": "human MDA 468 xenograft tumours", "test": "In vivo activity against MDA 468 xenograft", "design": "species or system nude mice", "method": "The effect of CJM 126 (0.1, 0.01 and 0.001mg/kg) has also been investigated in nude mice bearing human MDA 468 xenograft tumours."}, "MCF 7-ADR mammary": {"test_system": "MCF 7-ADR mammary", "test": "In vitro cytotoxicity and growth stimulation assay", "format": "cell-based, human", "description": "(§1) This is illustrated in Tables 1 and 2 at the end of the present description which show in vitro test results obtained in various sets of experiments for the cytotoxic activity of this compound CJM 126 against a range of human tumour cell lines, expressed in terms of IC50 values (concentration or dosage required to reduce cell growth or proliferation by 50%) calculated from dose-effect curves plotted for cultures of the cells in question.\n(§2) In carrying out the above in vitro studies, the method used for conducting the cytotoxicity assays was generally substantially as follows: • Cells were maintained in a continuous logarithmic culture in Dulbecco's medium supplemented with 10% fetal calf serum and penicillin (100 IU/ml) and streptomycin (100 µg/ml). The cells were mildly trypsinized for passage and for use in assays. On day zero, 100µl of trypsinized tumour cells (1 x 10^4/ml) were plated in the wells of 96-well flat-bottom microtiter plates. […] On day two 50µl of the highest drug concentration was added to the wells of column 12 and from there serially diluted 3-fold to column 1 by serial transfer of 50µl using an 8-channel micropipette. The final volume of column 1 was adjusted to 100µl. No additions were made to the wells of rows A and B, which served as controls. The plates were further incubated for 5 days at 37°C and 5% CO2 in air. Each compound was tested in duplicate. • On day 7 the test was terminated by the addition of 100µl saline containing 0.002% w/v propidium iodide (Sigma), 0.3% drawing ink (Staedtler \"Marsmatic 745\" - Trade Mark) and 0.5% Triton X-100. The plates were kept at 4°C overnight before reading on an inverted microscope equipped with an automated scanning stage. Fluorescence intensity was measured in arbitrary units by a photomultiplier. An HP-87 computer controlled the movement of the stage and also collected and processed the data from the multiplier. • For each compound tested a dose-response curve was obtained and the IC50 value (the drug concentration at 50% inhibition of cell growth) was calculated."}, "Aqueous solubility": {"test": "Aqueous solubility", "format": "physicochemical", "conditions": "water", "method": "The latter was first obtained (as yellow crystals, m.p. 229-231°C, crystallised from methanol or dimethyl formamide) either via Route C (71% yield) from 2-aminothiophenol and 4-nitrobenzoyl chloride, or via Route D (10% yield) from the corresponding thiobenzanilide and potassium ferricyanide."}, "[3]": {"test_system": "MDA 231 mammary (EGFR+/erbB3+)", "test": "In vitro cytotoxicity assay", "format": "cell-based", "conditions": "Homo sapiens, MDA-MB-231", "description": "as §1, §2"}, "SKOV-3 ovarian carcinoma": {"test_system": "SKOV-3 ovarian carcinoma", "test": "In vitro cytotoxicity assay", "format": "cell-based", "conditions": "Homo sapiens, SK-OV-3; 2nd series of experiments", "description": "as §1, §2"}, "T24 bladder carcinoma": {"test_system": "T24 bladder carcinoma", "test": "In vitro cytotoxicity assay", "format": "cell-based", "conditions": "Homo sapiens", "description": "as §1, §2"}, "41M ovarian carcinoma": {"test_system": "41M ovarian carcinoma", "test": "In vitro cytotoxicity assay", "format": "cell-based", "conditions": "Homo sapiens; 2nd series of experiments", "description": "as §1, §2"}, "CH 1 ovarian carcinoma": {"test_system": "CH 1 ovarian carcinoma", "test": "In vitro cytotoxicity assay", "format": "cell-based", "conditions": "Homo sapiens; 2nd series of experiments", "description": "as §1, §2"}, "T47D mammary (ER-)": {"test_system": "T47D mammary (ER-)", "test": "In vitro cytotoxicity assay", "format": "cell-based", "conditions": "Homo sapiens, 2nd series of experiments", "description": "as §1, §2"}, "MCF 7-B (ER+)": {"test_system": "MCF 7-B (ER+)", "test": "In vitro cytotoxicity assay", "format": "cell-based", "conditions": "Homo sapiens; 2nd series of experiments", "description": "as §1, §2"}, "A2780 ovarian carcinoma": {"test_system": "A2780 ovarian carcinoma", "test": "In vitro cytotoxicity assay", "format": "cell-based, human", "description": "as §1, §2"}, "[4]": {"test_system": "MDA 468 mammary (ER-/EGFR+)", "test": "In vitro cytotoxicity assay", "format": "cell-based, human", "conditions": "Homo sapiens", "description": "as §1, §2"}, "[5]": {"conditions": "2nd series of experiments, read-out: IC50"}}, "note": "Like-named read-outs stand apart in the source and are kept apart here."}
{"smiles": "Nc1ccc(-c2nc3ccccc3s2)cc1", "note": "[CJM 126, 2-(4-aminophenyl)benzothiazole]", "values": [{"measurement": "toxicity in panel", "setting": "[1]", "result": "essentially non-toxic"}, {"measurement": "Tumour weight (g)", "setting": "[2]; 0.1mg/kg daily", "result": ".30 + .07 g"}, {"measurement": "Cross section tumour area (mm)", "setting": "[2]; 0.1mg/kg daily, Day 5", "result": "97.75 ± 9.55", "unit": "mm"}, {"measurement": "Cross section tumour area (mm)", "setting": "[2]; 0.1mg/kg daily, Day 12", "result": "71.07 ± 7.2", "unit": "mm"}, {"measurement": "Cross section tumour area (mm)", "setting": "[2]; 0.1mg/kg daily, Day 15", "result": "82.17 + 1058 mm"}, {"measurement": "Cross section tumour area (mm)", "setting": "[2]; 0.1mg/kg daily, Day 19", "result": "88.84 ± 3.69", "unit": "mm"}, {"measurement": "Cross section tumour area (mm)", "setting": "[2]; 0.1mg/kg daily, Day 22", "result": "105.66 ± 5.49", "unit": "mm"}, {"measurement": "Cross section tumour area (mm)", "setting": "[2]; 0.1mg/kg daily, Day 26", "result": "124.55 ± 7.90", "unit": "mm"}, {"measurement": "Cross section tumour area (mm)", "setting": "[2]; 0.1mg/kg daily, Day 29", "result": "182.15 ± 14.79", "unit": "mm"}, {"measurement": "Cross section tumour area (mm)", "setting": "[2]; 0.1mg/kg daily, Day 32", "result": "196.66 ± 18.65", "unit": "mm"}, {"measurement": "Tumour weight (g)", "setting": "[2]; .001mg/kg daily", "result": ".19 + .08 g"}, {"measurement": "Cross section tumour area (mm)", "setting": "[2]; .001mg/kg daily, Day 5", "result": "85.54 ± 19.44", "unit": "mm"}, {"measurement": "Cross section tumour area (mm)", "setting": "[2]; .001mg/kg daily, Day 12", "result": "52.93 ± 2.65", "unit": "mm"}, {"measurement": "Cross section tumour area (mm)", "setting": "[2]; .001mg/kg daily, Day 15", "result": "67.81 ± 12.92", "unit": "mm"}, {"measurement": "Cross section tumour area (mm)", "setting": "[2]; .001mg/kg daily, Day 19", "result": "64.8 ± 17.35", "unit": "mm"}, {"measurement": "Cross section tumour area (mm)", "setting": "[2]; .001mg/kg daily, Day 22", "result": "75.12 ± 20.05", "unit": "mm"}, {"measurement": "Cross section tumour area (mm)", "setting": "[2]; .001mg/kg daily, Day 26", "result": "81.53 ± 26.16", "unit": "mm"}, {"measurement": "Cross section tumour area (mm)", "setting": "[2]; .001mg/kg daily, Day 29", "result": "114.65 + 3457 mm"}, {"measurement": "Cross section tumour area (mm)", "setting": "[2]; .001mg/kg daily, Day 32", "result": "129.06 ± 32.08", "unit": "mm"}, {"measurement": "Tumour weight (g)", "setting": "[2]; .01mg/kg daily", "result": ".29 + .15 g"}, {"measurement": "Cross section tumour area (mm)", "setting": "[2]; .01mg/kg daily, Day 5", "result": "120.78 ± 5.83", "unit": "mm"}, {"measurement": "Cross section tumour area (mm)", "setting": "[2]; .01mg/kg daily, Day 12", "result": "71.65 ± 11.67", "unit": "mm"}, {"measurement": "Cross section tumour area (mm)", "setting": "[2]; .01mg/kg daily, Day 15", "result": "78.21 ± 6.69", "unit": "mm"}, {"measurement": "Cross section tumour area (mm)", "setting": "[2]; .01mg/kg daily, Day 19", "result": "98.03 ± 33.51", "unit": "mm"}, {"measurement": "Cross section tumour area (mm)", "setting": "[2]; .01mg/kg daily, Day 22", "result": "117.02 ± 42.1", "unit": "mm"}, {"measurement": "Cross section tumour area (mm)", "setting": "[2]; .01mg/kg daily, Day 26", "result": "131.58 ± 23.41", "unit": "mm"}, {"measurement": "Cross section tumour area (mm)", "setting": "[2]; .01mg/kg daily, Day 29", "result": "164.90 ± 37.18", "unit": "mm"}, {"measurement": "Cross section tumour area (mm)", "setting": "[2]; .01mg/kg daily, Day 32", "result": "191.68 ± 45.65", "unit": "mm"}, {"measurement": "stimulation", "setting": "MCF 7-ADR mammary; 2nd series of experiments, concentration giving stimulation", "result": "stimulation > 1µM"}, {"measurement": "effect on cell growth", "setting": "MCF 7-ADR mammary; 3 and 10µM, seeding density 2.5 x 10^2 cells per well", "result": "induced proliferation"}, {"measurement": "solubility", "setting": "Aqueous solubility", "result": "~3.8", "unit": "µg/mL"}, {"measurement": "IC50", "setting": "[3]; [5]", "result": 0.017, "unit": "µM"}, {"measurement": "IC50", "setting": "[3]; MDA 231, read-out: estimated IC50", "result": "~0.0172", "unit": "µM"}, {"measurement": "IC50", "setting": "SKOV-3 ovarian carcinoma", "result": 64, "unit": "µM"}, {"measurement": "IC50", "setting": "T24 bladder carcinoma; 1st series of experiments", "result": 16.9, "unit": "µg/mL"}, {"measurement": "IC50", "setting": "T24 bladder carcinoma; 2nd series of experiments", "result": 75, "unit": "µM"}, {"measurement": "IC50", "setting": "41M ovarian carcinoma", "result": 36, "unit": "µM"}, {"measurement": "IC50", "setting": "CH 1 ovarian carcinoma", "result": 22, "unit": "µM"}, {"measurement": "IC50", "setting": "T47D mammary (ER-)", "result": 44.1, "unit": "µM"}, {"measurement": "IC50", "setting": "MCF 7-B (ER+)", "result": 62.2, "unit": "µM"}, {"measurement": "IC50", "setting": "A2780 ovarian carcinoma; 2nd series of experiments", "result": 43, "unit": "µM"}, {"measurement": "IC50", "setting": "A2780 ovarian carcinoma; Homo sapiens, A2780, 1st series of experiments", "result": 8.83, "unit": "µg/mL"}, {"measurement": "IC50", "setting": "A2780 ovarian carcinoma; Homo sapiens, A2780, 2nd series of experiments", "result": 39, "unit": "µM"}, {"measurement": "IC50", "setting": "[4]; MDA 468, read-out: estimated IC50", "result": "~0.0016", "unit": "µM"}, {"measurement": "IC50", "setting": "[4]; column A, read-out: MDA 468 A IC50 at sub-micromolar concentrations", "result": 0.0016, "unit": "µM"}, {"measurement": "IC50", "setting": "[4]; [5]", "result": 0.0016, "unit": "µM"}]}
